# Assay results reported in US20040229816A1, “Anti-angiogenic and anti-tumoral properties of beta and gamma secretase inhibitors” (priority 2003, published 2004).
# Entries after “also recorded” stand apart in the source; their conditions may differ. Peptide text beside a SMILES is read from it. * marks the point of attachment. Cbz = O=C(OCc1ccccc1)*
# Tests used:
# [1] = tested on: human brain endothelial cells; assay: viability of human brain endothelial cells (LDH activity in culture medium); assay type: cell-based; details: 24 hours; for cellular toxicity / viability of human brain endothelial cells versus control: doses employed; for LDH activity in the culture medium, ANOVA main effect: various doses
# Experimental: (§1) Primary cultures of human brain endothelial cells were plated at a density of 10^4 cells/[…] of EBM 4% in 96 wells culture plates and treated with various doses of γ-secretase and β-secretase inhibitors as indicated in the figure legends. Following 24 hours in culture, the EBM covering the cells was removed and assayed for Lacticodehydrogenase (LDH) activity using the cytotoxicity detection kit (Roche Diagnostic Corporation, Ind.). Cells were covered with […] of EBM 4% and cellular proliferation measured using the Quick cell proliferation assay kit (Biovision Research Products, Calif.).
# [2] = tested on: human brain endothelial cells; assay: proliferation of human brain endothelial cells (Quick cell proliferation assay kit); assay type: cell-based; details: various doses, 24 hours
# Experimental: as §1
# [3] = tested on: U-87 MG brain tumor cells; assay: proliferation of U-87 MG brain tumor cells; assay type: cell-based, human
# [4] = tested on: human glioblastoma (U-87 MG) xenografts; assay: human glioblastoma U-87 MG xenografts in nude mice; assay type: in vivo; details: Z-VLL-CHO 5 mg/Kg; for vascularization (vascular index) of U-87 MG tumors versus vehicle: DAPT 10 mg/Kg intraperitoneally, CD31/PECAM-1 immunostaining; for growth (tumor volume) of U-87 MG xenografts versus vehicle: intraperitoneally everyday for 9 days, DAPT 10 mg/Kg
# Experimental: FIG. 8a: Anti-tumoral effect of the γ-secretase inhibitor DAPT and of the β-secretase inhibitor Z-VLL-CHO on human glioblastoma (U-87 MG) xenografts growth rates. U-87 MG cells (6×10^6) were injected subcutaneously into both flanks of 8-10 weeks-old nude mice. Mice were injected intraperitoneally with either the vehicle, 5 mg/Kg of body weight of the β-secretase inhibitor Z-VLL-CHO or 10 mg/Kg of body weight of the γ-secretase inhibitor DAPT, starting when tumors had reached a mean tumor volume of approximately 140 mm^3 (day 8 post implantation). Injections were given everyday for 9 days. […] FIG. 8b: Representative pictures of sections of glioblastoma tumors immunostained with CD31 antibodies. FIG. 8c: Histogram depicting the estimation of glioblastoma tumor vascularization.
# The human glioblastoma U-87 MG and human lung adenocarcinoma A-549 cell lines were obtained from American Tissue Culture Type Collection (Manassas, Va.) and were grown in DMEM containing 1×penicilline-streptomycine-fungizone and 10% fetal bovine serum at 37° C. in a humidified atmosphere of 5% CO2. Tumor cells (6×106) in 100 μl of PBS were inoculated subcutaneously into both flanks of 8-10-week-old female nude mice (Harland). Tumor volume (in mm^3) was determined using the formula (length×width^2)/2, where length was the longest axis and width the measurement at right angles to the length (Clarke et al. 2000). When the tumor volumes reached approximately 150 mm^3, animals were treated intraperitoneally everyday with 100 μl of 50% DMSO/H2O (vehicle group), 5 mg/Kg of body weight of Z-VLL-CHO (β-secretase inhibitor), 5 mg/Kg of JLK-6 (γ-secretase inhibitor) or with 10 mg/Kg of body weight of DAPT. Data were expressed as mean tumor volume±S.E for each treatment group.
# At the completion of the study, animals were humanely euthanized and tumors were harvested and fixed in paraformaldehyde 4% overnight at 4° C. After paraffin embedding in an automated tissue processing Sakura Tissue-Tek (E150) (Torrence, Calif.), samples were cut into 5 μm sections, deparafinized, and rehydrated through a graded series of alcohol. Sections were treated with 0.02 mg/ml Proteinase K (Gentra Systems, MN) for 15 minutes at 37° C. to allow for proper antigen retrieval, washed several times in PBS and incubated for 15 minutes in a 0.3% solution of hydrogen peroxide. […] Quantification of tumor vascularization was performed using the stereological dissector method. […] Microvessels were counted in the dissector frame by an experimenter unaware of the different treatment conditions. For each tumor an average vessel count per area of dissector frame was determined. A vascular index was calculated by expressing the vessel count as a percentage of the vessel count in the vehicle treatment condition.
# [5] = tested on: explants of rat aortae; assay: rat aortic ring model of angiogenesis (microvessel outgrowths); assay type: cell-based, Sprague Dawley rats; details: for sprouting of microvessel outgrowths, overall / dose dependence: day 4, 5 and 6
# Experimental: Twenty four well tissue culture grade plates (Nalgene International, NY) were covered with […] of Matrigel (Becton-Dickinson, Bedford, Mass.) and allowed to gel for 30 min at 37° C., 5% CO2. Briefly, thoracic aortae were excised from 9 month-old Sprague Dawley rats. After removing the fibroadipose tissue, arteries were sectioned into 1 mm long cross sections, rinsed 5 times with EBM (Clonetics Corp.) containing 4% fetal bovine serum (FBS) and placed on the Matrigel coated wells. Artery rings were covered with an additional […] of Matrigel. After polymerization the Matrigel was covered with 1 mL of EBM (4% FBS) containing various doses of Z-VVL-CHO, OM99-2, P10-P4′statV, DAPT, or L-685,458 as indicated in the figure legends (the culture medium was changed every 3 days). Pictures were taken at day 4, 5 and 6 using a 4×objective. Microvessel outgrowth area was quantified using the Image Pro Plus software. Briefly, ring cultures were photographed using a digital video camera linked to an Olympus BX60 microscope. The outgrowth area was delineated and measured with the Image Pro Plus software by using a strategy of microvessel outgrowth detection based on difference in color intensities between the outgrowths, the Matrigel and the artery ring. The artery rings were manually selected and excluded from the area of measurement and the color intensity threshold was adjusted to selectively measure the area occupied by the microvessel outgrowths. Results were expressed as a percentage of the area occupied by microvessel outgrowths at day 4 in control condition.
SMILES,cellular toxicity / viability of human brain endothelial cells versus control [1],"LDH activity in the culture medium, ANOVA main effect [1]","proliferation of human brain endothelial cells, dose dependence [2]",proliferation of U-87 MG brain tumor cells [3],tumoricidal activity [3],vascularization (vascular index) of U-87 MG tumors versus vehicle [4],growth (tumor volume) of U-87 MG xenografts versus vehicle [4],area covered by microvessel outgrowths versus control ([5]; 5 μM),area covered by microvessel outgrowths versus control ([5]; 10 μM),area covered by microvessel outgrowths versus control ([5]; 20 μM),"sprouting of microvessel outgrowths, overall / dose dependence [5]","sprouting of microvessel outgrowths, overall / dose dependence ([5]; listed as Z-VVL-CHO)"
"C[C@H](NC(=O)Cc1cc(F)cc(F)c1)C(=O)N[C@H](C(=O)OC(C)(C)C)c1ccccc1 [DAPT, N-[N-(3,5-difluorophenacetyl-L-alanyl)]-S-phenylglycine t-butyl ester]",without inducing cellular toxicity,significant main effect,dose dependently inhibited,dose dependently inhibited the proliferation,did not display tumoricidal activity,decreased vascularization; also recorded: significantly reduce the vascularization,completely inhibited the growth; also recorded: inhibit the growth,appeared to stimulate,no significant difference,inhibit,–,–
"CC(C)C[C@@H](C=O)NC(=O)[C@H](CC(C)C)NC(=O)[C@@H](NC(=O)OCc1ccccc1)C(C)C [Z-VLL-CHO, N-benzyloxycarbony-val-leu-leucinal] (Cbz-Val-Leu-Leu-aldehyde)",without affecting their viability,significant main effect,dose dependently inhibited,dose dependently inhibited the proliferation,did not display tumoricidal activity,decreased vascularization; also recorded: significantly reduce the vascularization,completely inhibited the growth; also recorded: inhibit the growth,–,–,–,profoundly anti-angiogenic; also recorded: dose dependently and potently inhibited,dose-dependently inhibits
